Our source for the IC50 values is patent US7109231B2, “Cyclohept[b]indole derivatives” (Eli Lilly and Company, priority 2001, dated 2006).

For the assay, the target named is T1, recombinant human secreted phospholipase A2 (Homo sapiens, UniProt P14555).
T1 sequence (P14555 21-144): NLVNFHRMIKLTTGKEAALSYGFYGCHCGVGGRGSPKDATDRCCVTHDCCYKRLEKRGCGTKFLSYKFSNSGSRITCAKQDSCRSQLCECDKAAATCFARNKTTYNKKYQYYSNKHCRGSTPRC
The assay can be described thus: chromogenic assay for inhibitors of recombinant human secreted phospholipase A2. In kind it is biochemical. The settings on record: diheptanoyl thio-PC substrate, pH 7.5, 40° C. for 30 minutes, absorbance at 405 nanometers, titrated in triplicate. An excerpt:
The following chromogenic assay procedure was used to identify and evaluate inhibitors of recombinant human secreted phospholipase A2. The assay described herein has been adapted for high volume screening using 96 well microtiter plates. A general description of this assay method is found in the article, “Analysis of Human Synovial Fluid Phospholipase A2 on Short Chain Phosphatidylcholine-Mixed Micelles: Development of a Spectrophotometric Assay Suitable for a Microtiterplate Reader”, by Laure J. Reynolds, Lori L. Hughes, and Edward A Dennis, Analytical Biochemistry, 204, pp. 190–197, 1992 (the disclosure of which is incorporated herein by reference): […]
A measured volume of racemic dipheptanoyl thio PC supplied in chloroform at a concentration of 100 mg/ml is taken to dryness and redissolved in 10 millimolar TRITON X-100™ nonionic detergent aqueous solution. […]
• 1. […] Read absorbance of wells at 405 nanometers with an automatic plate reader.
Tests were done in triplicate. […] Compounds initially found to be active were re-assayed to confirm their activity and, if sufficiently active, IC50 values were determined. […] In all cases, % inhibition measured at 405 nanometers generated by enzyme reactions containing inhibitors relative to the uninhibited control reactions was determined. […]

As a reminder, the IC50 is the concentration that inhibits the measured activity by half. Take `NC(=O)C1CCCCc2c1c1c(OCC(=O)O)cccc1n2Cc1ccccc1` (stereo not shown) [Example 1, (5-Benzyl-10-carbamoyl-5,6,7,8,9,10-hexahydro-cyclohepta[b]indol-1-yloxy)acetic Acid]: the IC50 is 0.248 µM.
